Measurements from patent US20260083865A1, “PROSTATE SPECIFIC MEMBRANE ANTIGEN (PSMA) LIGANDS AND USE THEREOF” (priority 2022, published 2026).
Numbered stars: 1 amine (or outer) side, 2 acyl side, 3 side chain; on linkers, the order of the positions; unused ones are H or OH. Bridge positions count the residues as written; N and C are the ends. Square brackets hold non-standard residues; d marks the D form. Side chains are listed from the residue outwards. Peptide text beside a SMILES is read from it. * marks the point of attachment. TtdsdLys(DOTA)NH2 = NC(=O)[C@@H](CCCCNC(=O)CN1CCN(CC(=O)O)CCN(CC(=O)O)CCN(CC(=O)O)CC1)NC(=O)CCC(=O)NCCCOCCOCCOCCCN*; Acetyl(1-DOTA-4-piperidyl) = O=C(O)CN1CCN(CC(=O)O)CCN(CC(=O)N2CCC(CC(=O)*)CC2)CCN(CC(=O)O)CC1; X3 = O=C(O)CN1CCN(CC(=O)O)CCN(CC(=O)NCCCOCCOCCOCCCN*)CCN(CC(=O)O)CC1; DOTA = O=C(O)CN1CCN(CC(=O)O)CCN(CC(=O)*)CCN(CC(=O)O)CC1; Oic = O=C(O)[C@@H]1C[C@@H]2CCCC[C@@H]2N1; Phe(4-Cl) = N[C@@H](Cc1ccc(Cl)cc1)C(=O)O; Suc = O=C(CCC(=O)[*:2])[*:1]; Tle = CC(C)(C)[C@H](N)C(=O)O; Hexanoyl = CCCCCC(=O)*; AEEA = NCCOCCOCC(=O)O; Aib = CC(C)(N)C(=O)O

Legend:
[1] = target: T1, Fc-fusion protein of human PSMA (hPSMA-Fc) (Homo sapiens, UniProt Q04609); experiment: Surface plasmon resonance assay (Biacore T200, single cycle kinetic); format: binding; settings: pKD category for PSMA SPR activity assay, hPSMA-Fc, 25° C.; read-out: pKD CAT (converted)
T1 construct: purchased Acro Biosystems PSA-H5264
T1 sequence (Q04609 44-750 limits assumed): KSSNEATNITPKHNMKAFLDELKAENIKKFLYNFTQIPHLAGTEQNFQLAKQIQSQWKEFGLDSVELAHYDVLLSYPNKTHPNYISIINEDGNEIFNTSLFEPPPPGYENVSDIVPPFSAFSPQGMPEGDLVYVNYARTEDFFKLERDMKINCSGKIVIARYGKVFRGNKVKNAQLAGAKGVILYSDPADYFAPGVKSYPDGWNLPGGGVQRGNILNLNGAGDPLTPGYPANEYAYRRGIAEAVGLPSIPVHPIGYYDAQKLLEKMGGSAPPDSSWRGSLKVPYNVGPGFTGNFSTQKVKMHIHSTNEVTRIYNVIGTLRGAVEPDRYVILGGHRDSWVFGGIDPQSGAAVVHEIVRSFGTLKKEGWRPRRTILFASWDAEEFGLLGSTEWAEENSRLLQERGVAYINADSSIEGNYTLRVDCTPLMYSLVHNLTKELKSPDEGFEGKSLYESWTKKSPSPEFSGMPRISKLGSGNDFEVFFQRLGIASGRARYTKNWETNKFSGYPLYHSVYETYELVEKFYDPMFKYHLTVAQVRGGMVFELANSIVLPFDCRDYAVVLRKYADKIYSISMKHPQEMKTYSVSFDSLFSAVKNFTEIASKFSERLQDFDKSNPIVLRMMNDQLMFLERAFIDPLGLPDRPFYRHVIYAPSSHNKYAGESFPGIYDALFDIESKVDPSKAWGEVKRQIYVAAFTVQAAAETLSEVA
Summary of the method: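 KD, expressed as pKD, came from 1:1 Langmuir fits of reference- and buffer-blank-subtracted SPR data. The runs were single-cycle kinetics at 25° C in HBST/0.1% DMSO over human PSMA-Fc, captured to ~1000 RU on a peptide-coated CM5 surface and regenerated with 10 mM glycine pH 1.5.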

[2] = target: T2, PSMA-expressing C4-2 cells (Homo sapiens, UniProt Q04609); experiment: FACS binding assay (competition with 50 nM PSM-0183); settings: pIC50 category of FACS binding, C4-2 cells; read-out: pIC50 [C4-2] CAT (converted)
T2 construct: PSMA-expressing C4-2 cells (ATCC, Cat. No. CRL-3314) were cultured in RPMI-1640; host or cells: C4-2 cells
T2 sequence (Q04609 whole entry): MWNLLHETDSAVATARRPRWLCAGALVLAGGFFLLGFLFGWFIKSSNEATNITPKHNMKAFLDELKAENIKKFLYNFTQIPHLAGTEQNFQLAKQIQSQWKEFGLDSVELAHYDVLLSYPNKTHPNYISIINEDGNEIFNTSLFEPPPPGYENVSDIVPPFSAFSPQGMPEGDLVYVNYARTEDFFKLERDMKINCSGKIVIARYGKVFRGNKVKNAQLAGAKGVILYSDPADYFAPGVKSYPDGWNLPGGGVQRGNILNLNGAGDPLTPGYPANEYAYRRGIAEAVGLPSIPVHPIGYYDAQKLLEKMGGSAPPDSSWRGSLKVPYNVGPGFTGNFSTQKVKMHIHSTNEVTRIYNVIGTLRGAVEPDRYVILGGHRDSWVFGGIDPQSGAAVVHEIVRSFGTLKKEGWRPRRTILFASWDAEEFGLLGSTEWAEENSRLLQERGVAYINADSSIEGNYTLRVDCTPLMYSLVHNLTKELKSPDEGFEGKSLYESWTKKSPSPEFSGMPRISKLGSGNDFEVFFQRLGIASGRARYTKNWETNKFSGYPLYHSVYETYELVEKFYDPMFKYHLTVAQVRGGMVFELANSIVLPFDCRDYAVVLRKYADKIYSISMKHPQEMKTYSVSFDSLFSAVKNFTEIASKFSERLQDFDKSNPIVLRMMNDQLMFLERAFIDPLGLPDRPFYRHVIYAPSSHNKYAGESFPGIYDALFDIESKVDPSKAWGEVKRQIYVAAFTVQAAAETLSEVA
Summary of the method: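 Competition format: fluorescent tracer PSM-0183 (50 nM) displaced from PSMA on C4-2 cells by a test compound titration over 1 h at 4 °C. Bound tracer was quantified as flow-cytometric AF488 median fluorescence after washing. Four-parameter logistic fits of MFI data gave IC50 and pIC50.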

Structure (SMILES)	Kd [1]	IC50 [2]
C[C@@H](O)[C@H](NC(=O)CCC(=O)NCCCOCCOCCOCCCNC(=O)CN1CCN(CC(=O)O)CCN(CC(=O)O)CCN(CC(=O)O)CC1)C(=O)NC(C)(C)C(=O)N[C@@H](Cc1ccccc1)C(=O)N[C@H]1CSSC[C@@H](C(=O)N[C@H](C(=O)N[C@H](C(=O)N[C@@H](CC(=O)O)C(N)=O)[C@@H](C)O)C(C)(C)C)NC(=O)[C@H](CC(N)=O)NC(=O)C(C)(C)NC(=O)[C@H](CCCNC(=N)N)NC(=O)[C@H](CCCCN)NC1=O [PSM-0398, DOTA-Ttds-Thr-Aib-Phe-[Cys-Lys-Arg-Aib-Asn-Cys]-Tle-Thr-Asp-NH2] ({X3-Suc}-T[Aib]FCKR[Aib]NC[Tle]TD-NH2; disulfide 4-9)	< 12.6 nM	< 200 nM
CCCCCC(=O)N[C@H](C(=O)NC(C)(C)C(=O)N[C@@H](Cc1ccc(Cl)cc1)C(=O)N[C@H]1CSSC[C@@H](C(=O)N[C@H](C(=O)N[C@H](C(=O)N[C@H](CCCCNC(=O)CC2CCN(C(=O)CN3CCN(CC(=O)O)CCN(CC(=O)O)CCN(CC(=O)O)CC3)CC2)C(N)=O)[C@@H](C)O)C(C)(C)C)NC(=O)[C@H](CC(N)=O)NC(=O)C(C)(C)NC(=O)[C@H](CCCNC(=N)N)NC(=O)[C@H](CCCCN)NC1=O)[C@@H](C)O [PSM-0400, Hex-Thr-Aib-Pcf-[Cys-Lys-Arg-Aib-Asn-Cys]-Tle-Thr-lys(DOTA-Cmp)-NH2] (Hexanoyl-T[Aib][Phe(4-Cl)]CKR[Aib]NC[Tle]T[dK](Acetyl(1-DOTA-4-piperidyl))-NH2; disulfide 4-9)	< 12.6 nM	< 200 nM
CC(=O)N[C@H](C(=O)NC(C)(C)C(=O)N[C@@H](Cc1ccccc1)C(=O)N[C@H]1CSSC[C@@H](C(=O)N[C@H](C(=O)N[C@H](C(N)=O)[C@@H](C)O)C(C)(C)C)NC(=O)[C@H](CC(N)=O)NC(=O)[C@H](CCCCNC(=O)COCCOCCNC(=O)CN2CCN(CC(=O)O)CCN(CC(=O)O)CCN(CC(=O)O)CC2)NC(=O)[C@H](CCCNC(=N)N)NC(=O)[C@H](CCCCN)NC1=O)[C@@H](C)O [PSM-0401, Ac-Thr-Aib-Phe-[Cys-Lys-Arg-Lys(DOTA-020c)-Asn-Cys]-Tle-Thr-NH2] (Ac-T[Aib]FCKRK([AEEA-DOTA])NC[Tle]T-NH2; disulfide 4-9)	< 12.6 nM	< 200 nM
CC(=O)N[C@H](C(=O)NC(C)(C)C(=O)N[C@@H](Cc1ccccc1)C(=O)N[C@H]1CSSC[C@@H](C(=O)N[C@H](C(=O)N[C@H](C(N)=O)[C@@H](C)O)C(C)(C)C)NC(=O)[C@@H](CC(N)=O)NC(=O)C(C)(C)NC(=O)[C@H](CCCNC(=N)N)NC(=O)[C@H](CCCCN)NC1=O)[C@@H](C)O [PSM-0402, Ac-Thr-Aib-Phe-[Cys-Lys-Arg-Aib-asn-Cys]-Tle-Thr-NH2] (Ac-T[Aib]FCKR[Aib][dN]C[Tle]T-NH2; disulfide 4-9)	< 12.6 nM	< 200 nM
CC(=O)N[C@H](C(=O)NC(C)(C)C(=O)N[C@@H](Cc1ccccc1)C(=O)N[C@H]1CSSC[C@@H](C(=O)N[C@H](C(=O)N[C@H](C(=O)N[C@@H](CC(=O)O)C(N)=O)[C@@H](C)O)C(C)(C)C)NC(=O)[C@H](CC(N)=O)NC(=O)[C@@H]2C[C@@H]3CCCC[C@@H]3N2C(=O)[C@H](CCCNC(=N)N)NC(=O)[C@H](CCCCN)NC1=O)[C@@H](C)O [PSM-0403, Ac-Thr-Aib-Phe-[Cys-Lys-Arg-Oic-Asn-Cys]-Tle-Thr-Asp-NH2] (Ac-T[Aib]FCKR[Oic]NC[Tle]TD-NH2; disulfide 4-9)	< 12.6 nM	< 200 nM
CC(=O)NC(C)(C)C(=O)N[C@@H](Cc1ccc(Cl)cc1)C(=O)N[C@H]1CSSC[C@@H](C(=O)N[C@H](C(=O)N[C@H](C(=O)N[C@H](CCCCNC(=O)CN2CCN(CC(=O)O)CCN(CC(=O)O)CCN(CC(=O)O)CC2)C(N)=O)[C@@H](C)O)C(C)(C)C)NC(=O)[C@H](CC(N)=O)NC(=O)C(C)(C)NC(=O)[C@H](CCCNC(=N)N)NC(=O)[C@H](CCCCN)NC1=O [PSM-0404, Ac-Aib-Pcf-[Cys-Lys-Arg-Aib-Asn-Cys]-Tle-Thr-lys(DOTA)-NH2] (Ac-[Aib][Phe(4-Cl)]CKR[Aib]NC[Tle]T[dK](DOTA)-NH2; disulfide 3-8)	< 12.6 nM	< 200 nM
CCCCCC(=O)N[C@H](C(=O)N[C@@H](C)C(=O)N[C@@H](Cc1ccccc1)C(=O)N[C@H]1CSSC[C@@H](C(=O)N[C@@H](CC(C)C)C(=O)N[C@H](C(=O)N[C@@H](CC(=O)O)C(=O)NCCCOCCOCCOCCCNC(=O)CCC(=O)N[C@H](CCCCNC(=O)CN2CCN(CC(=O)O)CCN(CC(=O)O)CCN(CC(=O)O)CC2)C(N)=O)[C@@H](C)O)NC(=O)[C@H](CC(N)=O)NC(=O)[C@H](C)NC(=O)[C@H](CCCNC(=N)N)NC(=O)[C@H](CCCCN)NC1=O)[C@@H](C)O [PSM-0405, Hex-Thr-Ala-Phe-[Cys-Lys-Arg-Ala-Asn-Cys]-Leu-Thr-Asp-Ttds-lys(DOTA)-NH2] (Hexanoyl-TAFCKRANCLTD-{TtdsdLys(DOTA)NH2}; disulfide 4-9)	12.6 to 126 nM	< 200 nM
